Test [1] deals with AP2-associated protein kinase 1 (Homo sapiens) (UniProt Q2M2I8). In words: Inhibition of AAK1 (unknown origin) assessed as residual activity at 1000 nM by KINOMEscan analysis relative to control.
Test [2] concerns the target Receptor-type tyrosine-protein kinase FLT3 (Homo sapiens) (UniProt P36888). In words: Inhibition of FLT3 (unknown origin) assessed as residual activity at 1000 nM by KINOMEscan analysis relative to control.
Test [3] concerns the target T1, Serine/threonine-protein kinase ICK (Homo sapiens) (UniProt Q9UPZ9).
T1 sequence (whole entry): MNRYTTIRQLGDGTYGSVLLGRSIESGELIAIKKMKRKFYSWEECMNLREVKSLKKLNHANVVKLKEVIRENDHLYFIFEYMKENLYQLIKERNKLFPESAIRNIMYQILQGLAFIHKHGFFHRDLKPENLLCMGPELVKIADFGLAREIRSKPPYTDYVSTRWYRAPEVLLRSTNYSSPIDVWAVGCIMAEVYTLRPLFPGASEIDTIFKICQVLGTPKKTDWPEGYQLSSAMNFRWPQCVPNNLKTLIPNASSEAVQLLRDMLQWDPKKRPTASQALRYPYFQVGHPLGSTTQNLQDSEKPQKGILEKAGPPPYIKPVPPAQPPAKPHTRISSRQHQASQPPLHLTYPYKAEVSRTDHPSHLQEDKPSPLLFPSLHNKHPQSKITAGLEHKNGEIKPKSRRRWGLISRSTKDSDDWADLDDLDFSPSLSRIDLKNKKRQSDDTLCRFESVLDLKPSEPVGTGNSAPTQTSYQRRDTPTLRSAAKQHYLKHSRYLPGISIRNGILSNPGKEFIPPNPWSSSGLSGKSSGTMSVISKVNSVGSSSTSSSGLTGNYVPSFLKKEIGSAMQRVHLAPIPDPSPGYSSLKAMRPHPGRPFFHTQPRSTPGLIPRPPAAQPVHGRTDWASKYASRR
In words: Inhibition of ICK (unknown origin) assessed as residual activity at 1000 nM by KINOMEscan analysis relative to control.

In test [4] the target is Insulin receptor (Homo sapiens) (UniProt P06213). In words: Inhibition of INSR (unknown origin) assessed as residual activity at 1000 nM by KINOMEscan analysis relative to control.
Test [5] addresses T2, Interleukin-1 receptor-associated kinase 3 (Homo sapiens) (UniProt Q9Y616).
T2 sequence (whole entry): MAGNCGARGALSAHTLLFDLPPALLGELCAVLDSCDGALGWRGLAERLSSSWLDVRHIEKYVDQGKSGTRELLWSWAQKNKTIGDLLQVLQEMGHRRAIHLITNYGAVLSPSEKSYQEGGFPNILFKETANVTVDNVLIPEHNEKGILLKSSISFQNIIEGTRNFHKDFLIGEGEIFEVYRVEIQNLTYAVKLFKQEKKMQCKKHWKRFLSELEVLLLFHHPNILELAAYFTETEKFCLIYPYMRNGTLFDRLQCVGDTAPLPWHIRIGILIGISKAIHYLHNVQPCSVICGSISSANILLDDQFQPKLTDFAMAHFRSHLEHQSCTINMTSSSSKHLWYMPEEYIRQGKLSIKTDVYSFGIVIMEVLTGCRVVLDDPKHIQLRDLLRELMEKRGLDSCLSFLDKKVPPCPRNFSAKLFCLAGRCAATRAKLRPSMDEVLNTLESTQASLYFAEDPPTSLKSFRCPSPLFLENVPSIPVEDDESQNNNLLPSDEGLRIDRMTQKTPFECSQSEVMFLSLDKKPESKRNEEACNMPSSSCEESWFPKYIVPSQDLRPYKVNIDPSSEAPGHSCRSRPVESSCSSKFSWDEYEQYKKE
In words: Inhibition of IRAK3 (unknown origin) assessed as residual activity at 1000 nM by KINOMEscan analysis relative to control.

Test [6] addresses Mitogen-activated protein kinase kinase kinase 9 (Homo sapiens) (UniProt P80192). Kind of test: Inhibition of MLK1 (unknown origin) assessed as residual activity at 1000 nM by KINOMEscan analysis relative to control.
Test [7] concerns the target Serine/threonine-protein kinase PAK 2 (Homo sapiens) (UniProt Q13177). In words: Inhibition of PAK2 (unknown origin) assessed as residual activity at 1000 nM by KINOMEscan analysis relative to control.
The target of test [8] is Cyclin-dependent kinase 15 (Homo sapiens) (UniProt Q96Q40). In words: Inhibition of PFTAIRE2 (unknown origin) assessed as residual activity at 1000 nM by KINOMEscan analysis relative to control.
Test [9] addresses Protein kinase C eta type (Homo sapiens) (UniProt P24723). Kind of test: Inhibition of PRKCH (unknown origin) assessed as residual activity at 1000 nM by KINOMEscan analysis relative to control.
In test [10] the target is Ribosomal protein S6 kinase alpha-6 (Homo sapiens) (UniProt Q9UK32). Kind of test: Inhibition of C-terminal RSK4 kinetic domain 2 (unknown origin) assessed as residual activity at 1000 nM by KINOMEscan analysis relative to control.
Chain of Ribosomal protein S6 kinase alpha-6 (Homo sapiens) (Q9UK32 whole entry, the tested form may be a part): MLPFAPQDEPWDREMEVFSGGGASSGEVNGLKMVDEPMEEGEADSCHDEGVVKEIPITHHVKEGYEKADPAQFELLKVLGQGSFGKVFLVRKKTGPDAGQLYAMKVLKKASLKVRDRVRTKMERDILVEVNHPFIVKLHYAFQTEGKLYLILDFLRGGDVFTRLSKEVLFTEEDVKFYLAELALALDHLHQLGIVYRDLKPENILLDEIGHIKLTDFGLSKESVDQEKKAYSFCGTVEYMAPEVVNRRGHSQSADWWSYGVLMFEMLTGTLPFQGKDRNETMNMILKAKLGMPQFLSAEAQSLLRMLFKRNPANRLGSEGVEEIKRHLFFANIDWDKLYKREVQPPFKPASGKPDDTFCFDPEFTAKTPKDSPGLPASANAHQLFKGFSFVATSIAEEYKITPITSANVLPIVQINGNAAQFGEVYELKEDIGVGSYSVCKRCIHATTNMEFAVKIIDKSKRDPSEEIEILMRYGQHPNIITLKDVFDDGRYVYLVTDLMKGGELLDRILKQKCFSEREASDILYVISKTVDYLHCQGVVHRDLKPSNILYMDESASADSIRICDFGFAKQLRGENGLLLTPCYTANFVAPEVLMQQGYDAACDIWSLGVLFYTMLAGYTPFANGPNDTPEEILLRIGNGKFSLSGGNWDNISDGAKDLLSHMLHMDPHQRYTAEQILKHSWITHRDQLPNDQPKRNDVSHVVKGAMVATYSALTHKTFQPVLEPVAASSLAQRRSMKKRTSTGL
Test [11] concerns the target T3, Serine/threonine-protein kinase Sgk1 (Homo sapiens) (UniProt O00141).
T3 sequence (whole entry): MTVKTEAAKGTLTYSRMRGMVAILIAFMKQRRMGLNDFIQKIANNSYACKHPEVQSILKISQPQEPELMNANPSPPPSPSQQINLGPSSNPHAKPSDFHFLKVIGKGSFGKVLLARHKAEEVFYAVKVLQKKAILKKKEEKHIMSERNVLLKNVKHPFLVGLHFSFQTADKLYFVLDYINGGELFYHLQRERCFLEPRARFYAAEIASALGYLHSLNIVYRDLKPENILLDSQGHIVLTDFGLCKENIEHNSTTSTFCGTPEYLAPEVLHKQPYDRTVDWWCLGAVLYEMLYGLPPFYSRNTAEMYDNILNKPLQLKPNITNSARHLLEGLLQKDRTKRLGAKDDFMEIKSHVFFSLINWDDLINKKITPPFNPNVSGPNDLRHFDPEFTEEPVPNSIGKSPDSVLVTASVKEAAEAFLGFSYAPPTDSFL
In words: Inhibition of SGK (unknown origin) assessed as residual activity at 1000 nM by KINOMEscan analysis relative to control.

Chain of Serine/threonine-protein kinase PAK 2 (Homo sapiens) (Q13177 whole entry): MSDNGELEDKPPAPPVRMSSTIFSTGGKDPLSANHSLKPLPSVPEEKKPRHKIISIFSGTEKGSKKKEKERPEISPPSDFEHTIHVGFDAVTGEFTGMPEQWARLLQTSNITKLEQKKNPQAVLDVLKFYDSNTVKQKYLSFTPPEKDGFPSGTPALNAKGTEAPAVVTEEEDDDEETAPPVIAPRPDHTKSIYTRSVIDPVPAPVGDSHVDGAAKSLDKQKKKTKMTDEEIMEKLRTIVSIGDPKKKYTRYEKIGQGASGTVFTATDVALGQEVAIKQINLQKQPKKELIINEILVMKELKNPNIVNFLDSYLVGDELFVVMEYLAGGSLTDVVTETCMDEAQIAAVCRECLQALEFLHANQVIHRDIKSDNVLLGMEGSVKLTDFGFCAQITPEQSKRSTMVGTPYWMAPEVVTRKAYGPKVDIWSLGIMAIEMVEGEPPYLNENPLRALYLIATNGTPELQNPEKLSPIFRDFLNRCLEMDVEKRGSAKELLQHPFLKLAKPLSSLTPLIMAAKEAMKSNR
Chain of Protein kinase C eta type (Homo sapiens) (P24723 whole entry, the tested form may be a part): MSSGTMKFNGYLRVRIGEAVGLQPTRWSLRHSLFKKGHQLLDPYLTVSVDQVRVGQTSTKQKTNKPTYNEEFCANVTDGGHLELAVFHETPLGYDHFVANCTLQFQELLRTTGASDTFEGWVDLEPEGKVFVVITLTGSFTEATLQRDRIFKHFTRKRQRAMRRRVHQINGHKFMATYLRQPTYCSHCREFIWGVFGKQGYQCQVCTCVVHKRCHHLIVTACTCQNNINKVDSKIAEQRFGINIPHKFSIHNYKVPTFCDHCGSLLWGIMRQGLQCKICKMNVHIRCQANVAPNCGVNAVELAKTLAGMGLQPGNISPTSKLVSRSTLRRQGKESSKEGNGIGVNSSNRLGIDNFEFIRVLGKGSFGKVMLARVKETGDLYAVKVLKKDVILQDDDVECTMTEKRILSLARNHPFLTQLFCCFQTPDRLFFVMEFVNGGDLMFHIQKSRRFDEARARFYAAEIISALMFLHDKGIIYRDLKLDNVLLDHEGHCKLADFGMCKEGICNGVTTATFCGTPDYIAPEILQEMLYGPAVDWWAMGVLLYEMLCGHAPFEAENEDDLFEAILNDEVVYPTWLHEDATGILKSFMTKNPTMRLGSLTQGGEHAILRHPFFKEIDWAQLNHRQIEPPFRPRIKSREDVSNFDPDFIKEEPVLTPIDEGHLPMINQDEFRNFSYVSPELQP
Chain of Receptor-type tyrosine-protein kinase FLT3 (Homo sapiens) (P36888 whole entry): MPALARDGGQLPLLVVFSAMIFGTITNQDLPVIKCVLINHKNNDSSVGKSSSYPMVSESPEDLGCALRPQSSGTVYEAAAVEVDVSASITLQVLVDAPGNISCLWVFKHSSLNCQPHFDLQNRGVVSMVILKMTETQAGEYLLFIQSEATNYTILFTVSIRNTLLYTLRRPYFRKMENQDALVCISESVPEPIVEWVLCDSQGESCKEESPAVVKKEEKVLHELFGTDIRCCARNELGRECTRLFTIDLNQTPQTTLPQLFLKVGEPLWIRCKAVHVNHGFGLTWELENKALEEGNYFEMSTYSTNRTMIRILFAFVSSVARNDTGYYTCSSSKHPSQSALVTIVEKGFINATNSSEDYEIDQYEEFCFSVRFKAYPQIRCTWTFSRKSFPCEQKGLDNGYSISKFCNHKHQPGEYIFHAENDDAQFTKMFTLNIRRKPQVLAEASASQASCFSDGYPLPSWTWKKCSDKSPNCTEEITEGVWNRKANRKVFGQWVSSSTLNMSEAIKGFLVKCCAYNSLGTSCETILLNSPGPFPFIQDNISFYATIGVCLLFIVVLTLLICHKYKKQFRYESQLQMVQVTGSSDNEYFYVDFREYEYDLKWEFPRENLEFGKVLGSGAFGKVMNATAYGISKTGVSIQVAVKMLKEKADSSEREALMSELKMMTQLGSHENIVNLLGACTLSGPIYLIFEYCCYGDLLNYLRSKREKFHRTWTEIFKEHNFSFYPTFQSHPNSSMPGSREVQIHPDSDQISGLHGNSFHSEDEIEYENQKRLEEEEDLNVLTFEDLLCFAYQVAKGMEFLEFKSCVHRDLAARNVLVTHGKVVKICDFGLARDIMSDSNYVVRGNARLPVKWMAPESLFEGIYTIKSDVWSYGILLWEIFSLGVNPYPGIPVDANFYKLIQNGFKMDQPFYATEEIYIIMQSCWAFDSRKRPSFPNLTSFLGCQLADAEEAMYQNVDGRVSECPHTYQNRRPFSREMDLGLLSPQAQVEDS
Chain of Mitogen-activated protein kinase kinase kinase 9 (Homo sapiens) (P80192 whole entry, looked up): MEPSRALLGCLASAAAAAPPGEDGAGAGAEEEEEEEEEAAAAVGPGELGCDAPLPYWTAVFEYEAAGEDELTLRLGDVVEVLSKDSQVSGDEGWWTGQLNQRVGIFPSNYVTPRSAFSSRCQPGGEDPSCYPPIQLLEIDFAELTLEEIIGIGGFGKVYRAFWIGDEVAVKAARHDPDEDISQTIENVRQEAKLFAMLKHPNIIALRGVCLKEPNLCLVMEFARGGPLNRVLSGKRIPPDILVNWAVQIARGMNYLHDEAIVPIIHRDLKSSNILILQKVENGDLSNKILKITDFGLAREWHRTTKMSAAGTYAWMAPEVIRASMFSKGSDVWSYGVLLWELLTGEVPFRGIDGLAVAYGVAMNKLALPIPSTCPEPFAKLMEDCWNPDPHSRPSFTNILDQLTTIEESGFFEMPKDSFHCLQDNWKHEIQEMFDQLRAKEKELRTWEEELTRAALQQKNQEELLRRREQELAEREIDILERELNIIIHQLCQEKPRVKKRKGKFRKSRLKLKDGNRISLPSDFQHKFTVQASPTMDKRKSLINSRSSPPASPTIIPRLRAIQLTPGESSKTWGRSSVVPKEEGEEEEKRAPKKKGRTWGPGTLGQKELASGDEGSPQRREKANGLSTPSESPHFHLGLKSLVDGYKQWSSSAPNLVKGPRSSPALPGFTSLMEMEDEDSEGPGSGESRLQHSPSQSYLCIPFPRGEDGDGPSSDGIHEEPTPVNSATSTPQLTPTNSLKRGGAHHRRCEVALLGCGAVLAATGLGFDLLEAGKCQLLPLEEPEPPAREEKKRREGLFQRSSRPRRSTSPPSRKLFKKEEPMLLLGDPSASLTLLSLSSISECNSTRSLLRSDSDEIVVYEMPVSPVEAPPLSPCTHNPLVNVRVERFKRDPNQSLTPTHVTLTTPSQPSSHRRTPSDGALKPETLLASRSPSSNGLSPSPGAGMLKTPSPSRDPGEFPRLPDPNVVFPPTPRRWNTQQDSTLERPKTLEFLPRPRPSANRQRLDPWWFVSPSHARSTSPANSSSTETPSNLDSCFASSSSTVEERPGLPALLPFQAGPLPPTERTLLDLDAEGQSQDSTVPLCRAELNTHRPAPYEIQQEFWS
Chain of AP2-associated protein kinase 1 (Homo sapiens) (Q2M2I8 whole entry, looked up): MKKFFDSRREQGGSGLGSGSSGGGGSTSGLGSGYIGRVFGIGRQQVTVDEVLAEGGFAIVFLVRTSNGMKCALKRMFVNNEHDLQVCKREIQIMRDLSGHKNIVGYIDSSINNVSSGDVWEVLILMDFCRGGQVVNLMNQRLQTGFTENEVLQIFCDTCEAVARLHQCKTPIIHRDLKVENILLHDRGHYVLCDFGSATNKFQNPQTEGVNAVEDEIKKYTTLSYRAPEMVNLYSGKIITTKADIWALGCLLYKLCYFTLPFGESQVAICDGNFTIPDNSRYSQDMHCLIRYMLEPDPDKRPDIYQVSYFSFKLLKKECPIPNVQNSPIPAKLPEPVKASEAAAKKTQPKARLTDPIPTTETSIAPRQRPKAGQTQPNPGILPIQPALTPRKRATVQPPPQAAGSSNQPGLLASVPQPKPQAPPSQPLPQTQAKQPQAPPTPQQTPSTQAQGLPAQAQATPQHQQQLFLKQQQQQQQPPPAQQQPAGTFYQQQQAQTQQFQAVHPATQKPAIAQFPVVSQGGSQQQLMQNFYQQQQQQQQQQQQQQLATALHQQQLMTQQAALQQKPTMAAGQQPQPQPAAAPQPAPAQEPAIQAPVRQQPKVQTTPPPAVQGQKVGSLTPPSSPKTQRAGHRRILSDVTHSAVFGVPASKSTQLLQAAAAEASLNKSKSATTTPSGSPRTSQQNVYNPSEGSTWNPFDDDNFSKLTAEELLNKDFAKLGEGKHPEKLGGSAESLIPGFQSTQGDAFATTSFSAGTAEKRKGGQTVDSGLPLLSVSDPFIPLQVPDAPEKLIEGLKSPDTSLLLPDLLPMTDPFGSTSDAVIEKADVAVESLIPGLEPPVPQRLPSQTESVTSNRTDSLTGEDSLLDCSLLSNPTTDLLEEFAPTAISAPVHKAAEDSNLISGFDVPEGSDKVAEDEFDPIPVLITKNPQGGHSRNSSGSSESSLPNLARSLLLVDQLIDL

On to `COc1cc2nc(C)nc(N[C@H](C)c3cccc(-c4cn[nH]c4)c3)c2cc1OC`, for which the Activity in [1] is 100%; in [2], 78%; in [3], 78%; in test [4] it was 80%; in [5], 100%; in test [6] it was 84%. Further, the Activity was found to be 67% in test [7]; 94% in [8]; 95% in test [9]; 53% in [10]; 74% in [11].

As for `COc1cc2ncnc(N[C@H](C)c3cccc4ccccc34)c2cc1OC`, the Activity in test [1] is 100%; in [2], 93%; in test [3], 94%; in [4] it was 82%; in test [5], 100%; in [6] it was 100%. The Activity is 82% in test [7]; 100% in test [8]; 100% in test [9]; 95% in test [10]; 11% in test [11].

These data come from ChEMBL document CHEMBL5678818, “Discovery of potent SOS1 inhibitors that block RAS activation via disruption of the RAS-SOS1 interaction” (Proc Natl Acad Sci U S A, 2019).
